Laboratory results reported in patent publication US8653109B2, “Substituted bipyridine derivatives and their use as adenosine receptor ligands” (Bayer Intellectual Property GmbH, priority 2006, dated 2014).

How the values were obtained:
Type in all cases: cell-based
adenosine A1 receptor = biological target: T1, adenosine A1 receptor (Homo sapiens, UniProt P30542); assay: Indirect determination of adenosine agonism by way of gene expression (cAMP-dependent luciferase), A1 cells; details: CHO cells stably transfected with A1 receptor cDNA; 1 μM forskolin; concentration at which 50% of the luciferase answer is inhibited
T1 construct: expressed in transfected cells; host or cells: CHO (Chinese Hamster Ovary)
T1 sequence (P30542 1-326): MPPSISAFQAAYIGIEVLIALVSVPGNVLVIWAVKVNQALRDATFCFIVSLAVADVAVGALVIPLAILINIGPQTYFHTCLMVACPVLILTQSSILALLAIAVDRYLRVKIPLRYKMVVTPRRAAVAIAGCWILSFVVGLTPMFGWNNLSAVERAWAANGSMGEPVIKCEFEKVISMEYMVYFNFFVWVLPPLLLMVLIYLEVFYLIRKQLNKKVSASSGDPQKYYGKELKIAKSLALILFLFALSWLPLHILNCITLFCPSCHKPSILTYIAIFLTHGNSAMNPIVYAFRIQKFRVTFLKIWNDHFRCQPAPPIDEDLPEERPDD
Description: (§1) B-1. Indirect Determination of the Adenosine Agonism by Way of Gene Expression
(§2) Cells of the CHO (Chinese Hamster Ovary) permanent cell line are transfected stably with the cDNA for the adenosine receptor subtypes A1, A2a and A2b. The adenosine A1 receptors are coupled to the adenylate cyclase by way of Gi proteins, while the adenosine A2a and A2b receptors are coupled by way of Gs proteins. In correspondence with this, the formation of cAMP in the cell is inhibited or stimulated, respectively. After that, expression of the luciferase is modulated by way of a cAMP-dependent promoter. The luciferase test is optimized, with the aim of high sensitivity and reproducibility, low variance and good suitability for implementation on a robot system, by varying several test parameters, such as cell density, duration of the growth phase and the test incubation, forskolin concentration and medium composition. The following test protocol is used for pharmacologically characterizing cells and for the robot-assisted substance screening:
(§3) The stock cultures are grown, at 37° C. and under 5% CO2, in DMEM/F12 medium containing 10% FCS (foetal calf serum) and in each case split 1:10 after 2-3 days. The test cultures are seeded in 384-well plates with 2000 cells per well and grown at 37° C. for approx. 48 hours. The medium is then replaced with a physiological sodium chloride solution (130 mM sodium chloride, 5 mM potassium chloride, 2 mM calcium chloride, 20 mM HEPES, 1 mM magnesium chloride hexahydrate, 5 mM sodium bicarbonate, pH 7.4). The substances to be tested, which are dissolved in DMSO, are pipetted into the test cultures (maximum final concentration of DMSO in the test mixture: 0.5%) in a dilution series of from 5×10^−11M to 3×10^−6M (final concentration). 10 minutes later, forskolin is added to the A1 cells and all the cultures are subsequently incubated at 37° C. for four hours. After that, 35 μl of a solution which is composed of 50% lysis reagent (30 mM disodium hydrogenphosphate, 10% glycerol, 3% TritonX100, 25 mM TrisHCl, 2 mM dithiotreitol (DTT), pH 7.8) and 50% luciferase substrate solution (2.5 mM ATP, 0.5 mM luciferin, 0.1 mM coenzyme A, 10 mM tricine, 1.35 mM magnesium sulphate, 15 mM DTT, pH 7.8) are added to the test cultures, which are shaken for approx. 1 minute and the luciferase activity is measured using a camera system. The EC50 values are determined, i.e., the concentrations at which 50% of the luciferase answer is inhibited in the case of the A1 cell, and, respectively, 50% of the maximum stimulation with the corresponding substance is achieved in the case of the A2b and A2a cells. […] Pharmacol., 357 (1998), 1-9).

adenosine A2b receptor = biological target: T2, adenosine A2b receptor (Homo sapiens, UniProt P29275); assay: Indirect determination of adenosine agonism by way of gene expression (cAMP-dependent luciferase), A2b cells; details: CHO cells stably transfected with A2b receptor cDNA; 50% of the maximum stimulation of luciferase
T2 construct: expressed in transfected cells; host or cells: CHO (Chinese Hamster Ovary)
T2 sequence (P29275 1-332): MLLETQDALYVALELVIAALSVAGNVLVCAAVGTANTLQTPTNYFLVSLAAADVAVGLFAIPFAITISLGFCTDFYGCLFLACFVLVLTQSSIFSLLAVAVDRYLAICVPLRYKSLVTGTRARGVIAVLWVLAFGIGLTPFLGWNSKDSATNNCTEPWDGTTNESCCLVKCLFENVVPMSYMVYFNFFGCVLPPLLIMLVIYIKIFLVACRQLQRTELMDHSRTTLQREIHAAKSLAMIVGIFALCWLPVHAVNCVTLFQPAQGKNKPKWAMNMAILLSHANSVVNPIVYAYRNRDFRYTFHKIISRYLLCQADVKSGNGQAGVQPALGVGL
Description: as §1, §2, §3

adenosine A2a receptor = biological target: T3, adenosine A2a receptor (Homo sapiens, UniProt P29274); assay: Indirect determination of adenosine agonism by way of gene expression (cAMP-dependent luciferase), A2a cells; details: CHO cells stably transfected with A2a receptor cDNA; 50% of the maximum stimulation of luciferase
T3 construct: expressed in transfected cells; host or cells: CHO (Chinese Hamster Ovary)
T3 sequence (P29274 whole entry): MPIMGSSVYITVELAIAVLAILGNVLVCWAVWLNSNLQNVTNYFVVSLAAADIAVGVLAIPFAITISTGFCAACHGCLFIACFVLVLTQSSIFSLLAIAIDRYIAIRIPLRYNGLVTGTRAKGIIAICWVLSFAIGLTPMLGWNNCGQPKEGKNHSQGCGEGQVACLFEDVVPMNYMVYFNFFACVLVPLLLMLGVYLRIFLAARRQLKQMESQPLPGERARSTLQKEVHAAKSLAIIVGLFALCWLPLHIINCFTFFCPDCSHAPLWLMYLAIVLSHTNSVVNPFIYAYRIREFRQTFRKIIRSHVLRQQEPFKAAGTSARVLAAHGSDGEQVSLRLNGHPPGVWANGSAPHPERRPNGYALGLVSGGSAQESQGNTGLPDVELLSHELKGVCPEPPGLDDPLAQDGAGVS
Description: as §1, §2, §3

SMILES	EC50 (adenosine A1 receptor) [nM]	EC50 (adenosine A2b receptor) [nM]	EC50 (adenosine A2a receptor) [nM]
N#Cc1c(N)nc(SCc2csc(Nc3ccc(F)c(Cl)c3)n2)c(C#N)c1-c1ccc(OCCO)nc1 [Example 1, 2′-Amino-6′-[({2-[(3-chloro-4-fluorophenyl)amino]-1,3-thiazol-4-yl}methyl)thio]-6-(2-hydroxyethoxy)-3,4′-bipyridine-3′,5′-dicarbonitrile]	0.8	5.8	2180
N#Cc1c(N)nc(SCc2csc(Nc3ccc(F)cc3)n2)c(C#N)c1-c1ccc(OCCO)nc1 [Example 3]	0.2	3.7	123
N#Cc1c(N)nc(SCc2csc(Nc3cccc(F)c3)n2)c(C#N)c1-c1ccc(OCCO)nc1 [Example 5]	0.6	8.5	190
N#Cc1c(N)nc(SCc2csc(Nc3ccc(F)c(F)c3)n2)c(C#N)c1-c1ccc(OCCO)nc1 [Example 11]	0.4	5.7	150
N#Cc1c(N)nc(SCc2cscn2)c(C#N)c1-c1ccc(OCCO)nc1 [Example 13]	0.09	5.5	21
N#Cc1c(N)nc(SCc2csc(-c3ccc(Cl)cc3)n2)c(C#N)c1-c1ccc(OCCO)nc1 [Example 19, 2′-Amino-6′-({[2-(4-chlorophenyl)-1,3-thiazol-4-yl]methyl}thio)-6-(2-hydroxyethoxy)-3,4′-bipyridine-3′,5′-dicarbonitrile]	0.04	234	663
Cc1cc(CSc2nc(N)c(C#N)c(-c3ccc(OCCO)nc3)c2C#N)nc(Nc2ccc(F)cc2)n1 [Example 21]	3.6	> 3000	> 3000
N#Cc1c(N)nc(SCc2cccc(Nc3ccncc3)n2)c(C#N)c1-c1ccc(OCCO)nc1 [Example 22]	0.6	117	120
N#Cc1c(N)nc(SCc2ncon2)c(C#N)c1-c1ccc(OCCO)nc1 [Example 25]	4.1	> 3000	> 3000
N#Cc1c(N)nc(SCc2coc(-c3ccc(Cl)cc3)n2)c(C#N)c1-c1ccc(OCCO)nc1 [Example 31]	0.09	235	101
Cc1oc(-c2ccc(Cl)cc2)nc1CSc1nc(N)c(C#N)c(-c2ccc(OCCO)nc2)c1C#N [Example 37]	0.3	1260	1750
N#Cc1c(N)nc(SCc2coc(-c3ccc(Cl)cc3)n2)c(C#N)c1-c1ccc(OC[C@@H](O)CO)nc1 [Example 42, 2′-Amino-6′-({[2-(4-chlorophenyl)-1,3-oxazol-4-yl]methyl}thio)-6-{[(2S)-2,3-dihydroxypropyl]-oxy}-3,4′-bipyridine-3′,5′-dicarbonitrile]	0.09	516	355
N#Cc1c(N)nc(SCc2coc(-c3ccc(Cl)cc3)n2)c(C#N)c1-c1ccc(OC[C@H](O)CO)nc1 [Example 43, 2′-Amino-6′-({[2-(4-chlorophenyl)-1,3-oxazol-4-yl]methyl}thio)-6-{[(2R)-2,3-dihydroxypropyl]-oxy}-3,4′-bipyridine-3′,5′-dicarbonitrile]	0.04	185	72
N#Cc1c(SCc2csc(-c3ccc(Cl)cc3)n2)nc(N2CCCC2)c(C#N)c1-c1ccc(OCCO)nc1 [Example 44, 2′-({[2-(4-Chlorophenyl)-1,3-thiazol-4-yl]methyl}thio)-6-(2-hydroxyethoxy)-6′-pyrrolidin-1-yl-3,4′-bipyridine-3′,5′-dicarbonitrile]	0.08	95	547
N#Cc1c(NCCO)nc(SCc2csc(-c3ccc(Cl)cc3)n2)c(C#N)c1-c1ccc(OCCO)nc1 [Example 46]	0.04	166	266
